Experiments:
[1] = tested on: T cell clone HER500.23c21; assay: HLA-DR restriction: blocking anti-MHC class II antibodies in HERp270-284 stimulation of HER500.23c21 (IFNγ ELISA); format: cell-based, human; conditions: antibody blocking with anti-HLA-DR and anti-HLA-DP/-DQ
Method: FIG. 3. HLA-DR Restriction. Autologous EBV-LcL at 2×10^5 cells/mL and HERp270-284 was used to stimulate the T cell clone HER500.23c21 (1×10^5 cells/well), with and without the addition of blocking anti-MHC class II antibodies. Anti-HLA-DR ♦ and anti-HLA-DQ/anti-HLA-DP ▪ were titrated at the concentrations shown in cRPMI+10% FBS. Wells also contained EBV-LcLs, HER500.23c21T cell clone and peptide (1 μg/mL). Assay was incubated for 48 hours at 37° C. with 5% CO2. Supernatants were harvested and frozen at −20° C. and at a later date, analyzed for IFNγ production using ELISA. Multiple experiments were performed, mean triplicate values for one representative experiment is shown.
HLA-DR Restriction and Promiscuity. To determine HLA-DR restriction of the T cell epitope HERp270-284, anti-HLA-DR mAb L243, HLA-DQ mAb 1a3 or HLA-DP mAb B7/21 (20-1.25 μg/mL) were cultured with T cell clone HER.23c21, peptide HERp270-284 and autologous EBV-LcL in cRPMI+10% FBS media. Supernatants were harvested after 48 hours and tested for IL-2 and IFNγ production. […]
In order to determine which HLA molecules were responsible for presenting HERp270-284 to HER500.23c21, HLA-blocking antibodies were used to inhibit presentation and T cell activation. […] T cell stimulation was determined by IFNγ production.

[2] = tested on: T cell clone HER500.23c21; assay: Epitope mapping of clone HER500.23c21 with individual HER500 15-mer peptides and autologous EBV-LcL (IFNγ ELISA, IL-2 by HT-2 proliferation); format: cell-based, human; conditions: each peptide 1 ug/ml; autologous EBV LCL cells as antigen presenting cells
Method: FIG. 2. T cell clone HER500.23.21 is specific for Peptide #63 (HERp270-284). The HER-2/neu epitope was mapped for clone HER500.23.21 and specificity was determined using autologous EBV-LcLs and each individual HER500 peptide #1-125 (15 amino acids in length). The assay was set up in 96 well round bottom plates with autologous EBV-LcLs at 2×10^5 cells/well and the T cell clone HER500.23.21 added at 1×10^5 cells/well. Each peptide was used at a final concentration of 1 ug/mL. The assay was incubated at 37° C. with 5% CO2 for 48 hours at which time supernatant was removed to test for cytokine production. (A) IFNγ production by clone HER500.23.21 was measured using ELISA, calculated pg/mL is shown for each HER500 peptide. (B) IL-2 production was measured using HT-2 cell proliferation.
Identification and Characterization of HER-2/neu specific T cell clones. […]
Cytokine Production. […] IL-2 production was measured using the IL-2 dependent line HT-2 (ATCC). […] TdR was added for the final 6 hours of the assay and plates were harvested to glass fiber filter mats and DNA incorporation of the radioisotope, or proliferative response, was determined by counts per minute using a liquid scintillation counter (PerkinElmer Life and Analytical Sciences, Inc. Boston, Mass.). IFNγ production was measured using anti-human IFNγ antibody pairs for ELISA (BD Pharmingen, San Diego, Calif.). […]

Sequence: ALVTYNTDTFESMPN (HER-2/Neu peptide 270-284, HER500 peptide #63, HERp270-284, HER-2/Neu epitope 270-284, residues 3-17 of SEQ ID NO1) [Peptide 63]
- HLA restriction of HER500.23c21 recognition [1]: HLA-DR restricted
- response of HER500.23c21 measured by IFNγ or IL2 production [2]: responded to only one individual peptide
